# Measured values from publication PMC10196118, “Evidence for broad cross-reactivity of the SARS-CoV-2 NSP12-directed CD4^+ T-cell response with pre-primed responses directed against common cold coronaviruses” (Frontiers in Immunology, 2023).
# Test system: pre-cultured PBMCs (NSP12-specific T cells)
# Assay: IFN-γ ELISpot with single 15-mer peptides after 11–13 days in vitro peptide-pool T-cell expansion
# Type: cell-based, human
# Conditions: for peptide-specific response, donor HH-N12-18, post COVID-19 / peptide-specific response, donor HH-N12-34, post COVID-19 / peptide-specific response, donor HH-N12-35, post COVID-19 / peptide-specific response, donor HH-N12-36, post COVID-19 / peptide-specific response, donor HH-N12-37, post COVID-19 / peptide-specific T-cell response, donor HH-N12-18, post COVID-19 / peptide-specific T-cell response, donor HH-N12-34, post COVID-19 / peptide-specific T-cell response, donor HH-N12-35, post COVID-19 / peptide-specific T-cell response, donor HH-N12-36, post COVID-19 / peptide-specific T-cell response, donor HH-N12-37, post COVID-19: sample post COVID-19; for peptide-specific response, donor HH-N12-18, post COVID-19 / peptide-specific response, donor HH-N12-18, pre COVID-19 / peptide-specific response, donor HH-N12-34, post COVID-19 / peptide-specific response, donor HH-N12-34, pre COVID-19 / peptide-specific response, donor HH-N12-35, post COVID-19 / peptide-specific response, donor HH-N12-35, pre COVID-19 / peptide-specific response, donor HH-N12-36, post COVID-19 / peptide-specific response, donor HH-N12-36, pre COVID-19 / peptide-specific response, donor HH-N12-37, post COVID-19 / peptide-specific response, donor HH-N12-37, pre COVID-19: single NSP12 15-mer peptides; for peptide-specific response, donor HH-N12-18, pre COVID-19 / peptide-specific response, donor HH-N12-34, pre COVID-19 / peptide-specific response, donor HH-N12-35, pre COVID-19 / peptide-specific response, donor HH-N12-36, pre COVID-19 / peptide-specific response, donor HH-N12-37, pre COVID-19 / peptide-specific T-cell response, donor HH-N12-18, pre COVID-19 / peptide-specific T-cell response, donor HH-N12-34, pre COVID-19 / peptide-specific T-cell response, donor HH-N12-35, pre COVID-19 / peptide-specific T-cell response, donor HH-N12-36, pre COVID-19 / peptide-specific T-cell response, donor HH-N12-37, pre COVID-19: sample pre COVID-19; for peptide-specific T-cell response, donor HH-N12-18, post COVID-19 / peptide-specific T-cell response, donor HH-N12-18, pre COVID-19 / peptide-specific T-cell response, donor HH-N12-34, post COVID-19 / peptide-specific T-cell response, donor HH-N12-34, pre COVID-19 / peptide-specific T-cell response, donor HH-N12-35, post COVID-19 / peptide-specific T-cell response, donor HH-N12-35, pre COVID-19 / peptide-specific T-cell response, donor HH-N12-36, post COVID-19 / peptide-specific T-cell response, donor HH-N12-36, pre COVID-19 / peptide-specific T-cell response, donor HH-N12-37, post COVID-19 / peptide-specific T-cell response, donor HH-N12-37, pre COVID-19: single NSP12 15-mer peptide, 0 = no response
Sequence,"peptide-specific response, donor HH-N12-18, post COVID-19","peptide-specific response, donor HH-N12-18, pre COVID-19","peptide-specific response, donor HH-N12-34, post COVID-19","peptide-specific response, donor HH-N12-34, pre COVID-19","peptide-specific response, donor HH-N12-35, post COVID-19","peptide-specific response, donor HH-N12-35, pre COVID-19","peptide-specific response, donor HH-N12-36, post COVID-19","peptide-specific response, donor HH-N12-36, pre COVID-19","peptide-specific response, donor HH-N12-37, post COVID-19","peptide-specific response, donor HH-N12-37, pre COVID-19","peptide-specific T-cell response, donor HH-N12-18, post COVID-19","peptide-specific T-cell response, donor HH-N12-18, pre COVID-19","peptide-specific T-cell response, donor HH-N12-34, post COVID-19","peptide-specific T-cell response, donor HH-N12-34, pre COVID-19","peptide-specific T-cell response, donor HH-N12-35, post COVID-19","peptide-specific T-cell response, donor HH-N12-35, pre COVID-19","peptide-specific T-cell response, donor HH-N12-36, post COVID-19","peptide-specific T-cell response, donor HH-N12-36, pre COVID-19","peptide-specific T-cell response, donor HH-N12-37, post COVID-19","peptide-specific T-cell response, donor HH-N12-37, pre COVID-19"
LTKPYIKWDLLKYDF [compound 53],0.021,0.02,0,0,0,0,0,0,0,0,–,–,–,–,–,–,–,–,–,–
NFKSVLYYQNNVFMS [compound 157],–,–,–,–,–,–,–,–,–,–,0.3,0,0,0,0,0,0,0,0,0
DQTYHPNCVNCLDDR [compound 59],0,0,0,0,0,0,0,0.047,0,0,–,–,–,–,–,–,–,–,–,–
YSDVENPHLMGWDYP [compound 122],0,0,0,0,0,0,0,0,0,0,–,–,–,–,–,–,–,–,–,–
MLKTVYSDVENPHLM [compound 121],0,0,0,0,0,0,0.052,0,0,0,–,–,–,–,–,–,–,–,–,–
ASQGLVASIKNFKSV [compound 155],–,–,–,–,–,–,–,–,–,–,0,0,0,0,0,0,0,0,0,0
PNCVNCLDDRCILHC [compound 60],0,0,0,0,0,0,0.022,0,0,0,–,–,–,–,–,–,–,–,–,–
